# From publication PMC5775429, “LY2087101 and dFBr share transmembrane binding sites in the (α4)3(β2)2 Nicotinic Acetylcholine Receptor” (Scientific Reports, 2018)
# Values joined by “and” are separate entries in the source; they are usually repeats but may differ in a detail not shown here. Identical values can stand only once. Like-named read-outs stand apart in the source and are kept apart here.
# What was measured:
# Assay in all cases: Two-electrode voltage-clamp of ACh-induced currents in Xenopus oocytes
# Assay type in all cases: cell-based
# (α4S284G)3(β2)2 nAChR = target: T1, (α4S284G)3(β2)2 nAChR (Homo sapiens, UniProt P17787+P43681, S284G); details: for R, potentiation ratio (PR): 10 µM ACh + 1 µM PAM vs 10 µM ACh alone
# T1 construct: expressed in transfected cells; host or cells: Xenopus laevis oocytes injected with cRNA
# Procedure: (§1) For amino acid substitutions within the α4 nAChR subunit, point mutations were introduced into pSP64ployA plasmid with cDNA encoding for human α4 nAChR subunit with mutagenic primer pairs using the Quick Change II Site-Directed Mutagenesis Kit (Agilent Technologies) then confirmed by DNA sequencing (GENEWIZ, LLC, South Plainfield, NJ). cRNA transcripts suitable for oocyte expression were prepared in vitro from linearized plasmids [α3 (BamH1), α4 (AseI), β2 (PvuII), β4 (XhoI)] using mMESSAGE mMACHINE high yield capped RNA transcription kits (Ambion) and purified on NucAway Spin column (Invitrogen). cRNA concentration was determined by spectroscopy (Concentration (ug/ul) = Abs260 * 40), aliquoted and stored at −80 °C until used.
# (§2) Ovarian lobules were surgically harvested from oocytes-positive female Xenopus laevis (NASCO, Fort Atkinson, WI) according to an animal use protocol approved by the Texas A&M Health Sciences Center Institutional Animals Care and Use Committee. The Texas A&M Health Sciences Center Research Facility is registered as an animal research facility with the United States Department of Agriculture and is fully accredited by the American Association for Accreditation of Laboratory Animal Care (AAALAC). For oocytes defolliculation, ovarian lobes were treated with 3 mg/ml collagenase type 2 (Worthington Biomedical, Lakewood, NJ) in Ca + 2-free buffer (85 mM NaCl, 2.5 mM KCl, 1 mM MgCl2, 5 mM HEPES, pH 7.6). Collagenase treatment was allowed to proceed for 3 hours at room temperature with gentle shaking then oocytes were washed several times with buffer to remove collagenase then with ND96-gentamicine buffer. Healthy Stage V and VI oocytes were visually selected and maintained at 18 °C in modified ND96-gentamicine buffer (96 mM NaCl, 2 mM KCl, 1.8 mM CaCl2, 1 mM MgCl2, 5 mM HEPES, 50 µg/ml gentamicin, pH 7.6). Oocytes were injected with 50–100 ng of the desired nAChR subunits cRNA mix at ratios of 8α:1β or 1α:8β to express nAChRs with subunit stoichiometries of 3α:2β (low agonist sensitivity) or 2α:3β (high agonist sensitivity), respectively.
# (§3) Oocytes were continuously perfused with recording buffer (100 mM NaCl, 2 mM KCl, 1 mM CaCl2, 0.8 mM MgCl2, 1 mM EGTA, 10 mM Hepes, pH 7.5) except during periods of drug applications.
# (α4F312V)3(β2)2 nAChR = target: T2, (α4F312V)3(β2)2 nAChR (Homo sapiens, UniProt P17787+P43681, F312V); details: for R, potentiation ratio (PR): 10 µM ACh + 1 µM PAM vs 10 µM ACh alone
# T2 construct: expressed in transfected cells; host or cells: Xenopus laevis oocytes injected with cRNA
# Procedure: as §1, §2, §3
# (α4I607T)3(β2)2 nAChR = target: T3, (α4I607T)3(β2)2 nAChR (Homo sapiens, UniProt P17787+P43681, I607T); details: for R, potentiation ratio (PR): 10 µM ACh + 1 µM PAM vs 10 µM ACh alone
# T3 construct: expressed in transfected cells; host or cells: Xenopus laevis oocytes injected with cRNA
# Procedure: as §1, §2, §3
# (α4C254S)3(β2)2 nAChR = target: T4, (α4C254S)3(β2)2 nAChR (Homo sapiens, UniProt P17787+P43681, C254S); details: for R, potentiation ratio (PR): 10 µM ACh + 1 µM PAM vs 10 µM ACh alone
# T4 construct: expressed in transfected cells; host or cells: Xenopus laevis oocytes injected with cRNA
# Procedure: as §1, §2, §3
# (α4I275V)3(β2)2 nAChR = target: T5, (α4I275V)3(β2)2 nAChR (Homo sapiens, UniProt P17787+P43681, I275V); details: for R, potentiation ratio (PR): 10 µM ACh + 1 µM PAM vs 10 µM ACh alone
# T5 construct: expressed in transfected cells; host or cells: Xenopus laevis oocytes injected with cRNA
# Procedure: as §1, §2, §3
# (α4S258M)3(β2)2 nAChR = (α4S258M)3(β2)2 nAChR (Homo sapiens, UniProt P43681, S258M); details: for R, potentiation ratio (PR): 10 µM ACh + 1 µM PAM vs 10 µM ACh alone
# Procedure: as §1, §2, §3
# (α4T313C)3(β2)2 nAChR = target: T6, (α4T313C)3(β2)2 nAChR (Homo sapiens, UniProt P17787+P43681, T313C); details: for R, potentiation ratio (PR): 10 µM ACh + 1 µM PAM vs 10 µM ACh alone
# T6 construct: expressed in transfected cells; host or cells: Xenopus laevis oocytes injected with cRNA
# Procedure: as §1, §2, §3
# (α4H332Y)3(β2)2 nAChR = target: T7, (α4H332Y)3(β2)2 nAChR (Homo sapiens, UniProt P17787+P43681, H332Y); details: for R, potentiation ratio (PR): 10 µM ACh + 1 µM PAM vs 10 µM ACh alone
# T7 construct: expressed in transfected cells; host or cells: Xenopus laevis oocytes injected with cRNA
# Procedure: as §1, §2, §3
# (α4L310F)3(β2)2 nAChR = target: T8, (α4L310F)3(β2)2 nAChR (Homo sapiens, UniProt P17787+P43681, L310F); details: for R, potentiation ratio (PR): 10 µM ACh + 1 µM PAM vs 10 µM ACh alone
# T8 construct: expressed in transfected cells; host or cells: Xenopus laevis oocytes injected with cRNA
# Procedure: as §1, §2, §3
# (α4L260M)3(β2)2 nAChR = target: T9, (α4L260M)3(β2)2 nAChR (Homo sapiens, UniProt P17787+P43681, L260M); details: for R, potentiation ratio (PR): 10 µM ACh + 1 µM PAM vs 10 µM ACh alone
# T9 construct: expressed in transfected cells; host or cells: Xenopus laevis oocytes injected with cRNA
# Procedure: as §1, §2, §3
# (α4R65H)3(β2)2 nAChR = (α4R65H)3(β2)2 nAChR (Homo sapiens, UniProt P43681, R65H); details: 10 µM ACh + 1 µM LY2087101 vs 10 µM ACh alone
# Procedure: as §1, §2
# Two-electrode voltage clamp recording of ACh-induced responses of Xenopus oocytes were performed 24–72 h following injection of nAChR subunit cRNA mix to ensure adequate nAChRs expression. Xenopus oocytes were placed in a custom-made recording chamber that is connected to eight channels automated perfusion system (Warner Instruments) and voltage-clamped at −50 mV using Oocyte Clamp OC-725B (Warner Instruments). Oocytes were continuously perfused with recording buffer (100 mM NaCl, 2 mM KCl, 1 mM CaCl2, 0.8 mM MgCl2, 1 mM EGTA, 10 mM Hepes, pH 7.5) except during periods of drug applications. […] Currents were digitized using Digidata 1550 A (Axon Instruments) and peak currents were quantified using pCLAMP 10 (Axon Instruments) then normalized and analyzed using Excels 2010 (Microsoft corporation) and SigmaPlot 11.0 (Systat Software).
# (α4)3(β2)2 nAChR = target: T10, (α4)3(β2)2 nAChR (Homo sapiens, UniProt P17787+P43681); details: for R, potentiation ratio (PR): 10 µM ACh + 1 µM PAM vs 10 µM ACh alone
# T10 construct: expressed in transfected cells; host or cells: Xenopus laevis oocytes injected with cRNA
# Procedure: To begin to characterize LY2087101 interaction with the heteropentameric α4β2 nAChRs, we examined the selectivity of LY2087101 for the two α4β2 nAChR isoforms; high-agonist sensitivity (α4)2(β2)3 and low-agonist sensitivity (α4)3(β2)2 nAChRs. Xenopus oocytes were injected with α4 and β2 subunits RNAs at ratios 8:1 and 1:8 to favor expression of (α4)3(β2)2 and (α4)2(β2)3 nAChRs, respectively.
# as §2, §3
# [1] = normalized to peak current by 10 µM ACh alone, curve fit
# [2] = read-out: LY2087101 potentiation EC50
# [3] = normalized to 10 µM ACh alone, not from curve fitting, maximum seen at any concentration up to 10 µM LY2087101
# [4] = ACh concentration-response curve, normalized to 1 mM ACh alone
# [5] = read-out: dFBr potentiation EC50
# T4 sequence (P43681 29-627 C254S limits assumed): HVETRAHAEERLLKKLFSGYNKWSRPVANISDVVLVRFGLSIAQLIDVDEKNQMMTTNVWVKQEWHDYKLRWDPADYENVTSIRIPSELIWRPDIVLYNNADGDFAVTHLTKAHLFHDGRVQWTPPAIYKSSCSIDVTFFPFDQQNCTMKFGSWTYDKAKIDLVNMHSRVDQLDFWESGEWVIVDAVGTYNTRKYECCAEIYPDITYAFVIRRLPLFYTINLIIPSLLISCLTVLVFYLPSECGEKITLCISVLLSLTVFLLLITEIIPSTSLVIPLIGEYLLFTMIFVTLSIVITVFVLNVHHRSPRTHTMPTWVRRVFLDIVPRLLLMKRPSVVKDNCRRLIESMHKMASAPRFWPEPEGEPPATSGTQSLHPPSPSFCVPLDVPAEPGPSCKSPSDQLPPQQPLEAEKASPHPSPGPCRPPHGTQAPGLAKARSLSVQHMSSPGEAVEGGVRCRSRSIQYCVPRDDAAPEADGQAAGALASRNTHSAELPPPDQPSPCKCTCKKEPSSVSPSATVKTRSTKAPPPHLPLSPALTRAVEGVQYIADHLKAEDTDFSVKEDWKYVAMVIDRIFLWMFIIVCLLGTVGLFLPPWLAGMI
# T4 sequence (P17787 26-502): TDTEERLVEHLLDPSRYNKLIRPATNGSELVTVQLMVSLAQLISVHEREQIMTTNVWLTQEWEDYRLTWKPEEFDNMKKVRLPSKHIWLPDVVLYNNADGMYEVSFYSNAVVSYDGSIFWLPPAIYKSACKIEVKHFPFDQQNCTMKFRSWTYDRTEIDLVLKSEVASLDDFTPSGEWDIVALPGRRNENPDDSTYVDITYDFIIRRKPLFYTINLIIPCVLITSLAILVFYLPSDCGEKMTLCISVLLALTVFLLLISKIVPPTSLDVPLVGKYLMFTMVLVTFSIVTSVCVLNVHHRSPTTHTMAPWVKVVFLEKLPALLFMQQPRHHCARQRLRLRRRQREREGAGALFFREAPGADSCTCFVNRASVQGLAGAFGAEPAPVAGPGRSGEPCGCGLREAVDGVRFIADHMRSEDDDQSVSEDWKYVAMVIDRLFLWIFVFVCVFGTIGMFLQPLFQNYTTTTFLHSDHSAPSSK
# T5 sequence (P43681 29-627 I275V limits assumed): as the sequence (P43681 29-627 C254S limits assumed) above, with S226C, I247V counted along it
# T5 sequence (P17787 26-502): as the sequence (P17787 26-502) above
# T8 sequence (P43681 29-627 L310F limits assumed): as the sequence (P43681 29-627 C254S limits assumed) above, with S226C, L282F counted along it
# T8 sequence (P17787 26-502): as the sequence (P17787 26-502) above
# T6 sequence (P43681 29-627 T313C limits assumed): as the sequence (P43681 29-627 C254S limits assumed) above, with S226C, T285C counted along it
# T6 sequence (P17787 26-502): as the sequence (P17787 26-502) above
# T9 sequence (P43681 29-627 L260M limits assumed): as the sequence (P43681 29-627 C254S limits assumed) above, with S226C, L232M counted along it
# T9 sequence (P17787 26-502): as the sequence (P17787 26-502) above
# Sequence of (α4S258M)3(β2)2 nAChR (P43681 29-627 S258M limits assumed): as the sequence (P43681 29-627 C254S limits assumed) above, with S226C, S230M counted along it
# Sequence of (α4S258M)3(β2)2 nAChR (P17787 26-502 partner): as the sequence (P17787 26-502) above
# T1 sequence (P43681 29-627 S284G limits assumed): as the sequence (P43681 29-627 C254S limits assumed) above, with S226C, S256G counted along it
# T1 sequence (P17787 26-502, stated change not applied): as the sequence (P17787 26-502) above
# T3 sequence (P43681 29-627 I607T limits assumed): as the sequence (P43681 29-627 C254S limits assumed) above, with S226C, I579T counted along it
# T3 sequence (P17787 26-502): as the sequence (P17787 26-502) above
# T10 sequence (P43681 29-627 limits assumed): as the sequence (P43681 29-627 C254S limits assumed) above, with S226C counted along it
# T10 sequence (P17787 26-502): as the sequence (P17787 26-502) above
# T2 sequence (P43681 29-627 F312V limits assumed): as the sequence (P43681 29-627 C254S limits assumed) above, with S226C, F284V counted along it
# T2 sequence (P17787 26-502): as the sequence (P17787 26-502) above
# T7 sequence (P43681 29-627 H332Y limits assumed): as the sequence (P43681 29-627 C254S limits assumed) above, with S226C, H304Y counted along it
# T7 sequence (P17787 26-502): as the sequence (P17787 26-502) above
# Sequence of (α4R65H)3(β2)2 nAChR (P43681 29-627 R65H limits assumed): as the sequence (P43681 29-627 C254S limits assumed) above, with R37H, S226C counted along it
# Sequence of (α4R65H)3(β2)2 nAChR (P17787 26-502 partner): as the sequence (P17787 26-502) above
smiles,measurement,setting,value
"Cc1nc(Nc2ccc(F)cc2)sc1C(=O)c1ccsc1 [LY2087101, [2-[(4-Fluorophenyl)amino]-4-methyl-5-thiazolyl]-3-thienylmethanone]","R, potentiation ratio (PR)",(α4S284G)3(β2)2 nAChR,3.8 ± 0.4
same,LY2087101 potentiation Imax%,(α4S284G)3(β2)2 nAChR; [1],537 ± 20%
same,EC50,(α4S284G)3(β2)2 nAChR; [2],0.7 ± 0.1 µM
same,"R, potentiation ratio (PR)",(α4F312V)3(β2)2 nAChR,2.5 ± 0.2
same,LY2087101 potentiation Imax%,(α4F312V)3(β2)2 nAChR; [3],269 ± 43%
same,EC50,(α4F312V)3(β2)2 nAChR; [2],0.1 ± 0.01 µM
same,"R, potentiation ratio (PR)",(α4I607T)3(β2)2 nAChR,5.8 ± 0.7
same,LY2087101 potentiation Imax%,(α4I607T)3(β2)2 nAChR; [1],958 ± 32%
same,EC50,(α4I607T)3(β2)2 nAChR; [2],0.8 ± 0.1 µM
same,"R, potentiation ratio (PR)",(α4C254S)3(β2)2 nAChR,8.4 ± 1.5
same,ACh Imax in the presence of 1 µM LY2087101,(α4C254S)3(β2)2 nAChR; [4],185 ± 04%
same,EC50,(α4C254S)3(β2)2 nAChR; [2],1.7 ± 0.2 µM
same,"R, potentiation ratio (PR)",(α4I275V)3(β2)2 nAChR,3.7 ± 0.5
same,EC50,(α4I275V)3(β2)2 nAChR; [2],1.7 ± 0.2 µM
same,"R, potentiation ratio (PR)",(α4S258M)3(β2)2 nAChR,1.5 ± 0.2
same,ACh Imax in the presence of 1 µM LY2087101,(α4S258M)3(β2)2 nAChR; [4],232 ± 10%
same,LY2087101 potentiation Imax%,(α4S258M)3(β2)2 nAChR; [3],254 ± 12%
same,"R, potentiation ratio (PR)",(α4T313C)3(β2)2 nAChR,2.1 ± 0.2
same,LY2087101 potentiation Imax%,(α4T313C)3(β2)2 nAChR; [1],196 ± 23%
same,EC50,(α4T313C)3(β2)2 nAChR; [2],0.7 ± 0.1 µM
same,"R, potentiation ratio (PR)",(α4H332Y)3(β2)2 nAChR,4.2 ± 0.5
same,LY2087101 potentiation Imax%,(α4H332Y)3(β2)2 nAChR; [1],573 ± 20%
same,EC50,(α4H332Y)3(β2)2 nAChR; [2],1.3 ± 0.1 µM
same,"R, potentiation ratio (PR)",(α4L310F)3(β2)2 nAChR,9.8 ± 1.0
same,EC50,(α4L310F)3(β2)2 nAChR; [2],3.1 ± 0.1 µM
same,"R, potentiation ratio (PR)",(α4L260M)3(β2)2 nAChR,1.6 ± 0.2
same,ACh Imax in the presence of 1 µM LY2087101,(α4L260M)3(β2)2 nAChR; [4],264 ± 80%
same,LY2087101 potentiation Imax%,(α4L260M)3(β2)2 nAChR; [1],269 ± 21%
same,EC50,(α4L260M)3(β2)2 nAChR; [2],2.5 ± 0.6 µM
same,"R, potentiation ratio (PR)",(α4R65H)3(β2)2 nAChR,7.4 ± 1.3
same,"R, potentiation ratio (PR)",(α4)3(β2)2 nAChR; WT,4.1 ± 0.3
same,ACh Imax in the presence of 1 µM LY2087101,(α4)3(β2)2 nAChR; [4],251 ± 19% and ~ 250%
same,EC50,"(α4)3(β2)2 nAChR; co-applied with 10 µM ACh, LS WT, read-out: LY2087101 potentiation EC50",1.4 µM and 1 to 2 µM
C=CC(C)(C)c1[nH]c2cc(Br)ccc2c1CCNC [dFBr],"R, potentiation ratio (PR)",(α4S284G)3(β2)2 nAChR,2.8 ± 0.4
same,"R, potentiation ratio (PR)",(α4F312V)3(β2)2 nAChR,1.2 and ~ 1.2 and 1.2 ± 0.1
same,dFBr concentration-dependent potentiation of ACh-current responses,"(α4F312V)3(β2)2 nAChR; dFBr up to 10 µM, 10 μM ACh",did not potentiate
same,"R, potentiation ratio (PR)",(α4I607T)3(β2)2 nAChR,4.7 ± 2.1
same,"R, potentiation ratio (PR)",(α4C254S)3(β2)2 nAChR,3.6 ± 0.4
same,ACh Imax in the presence of 1 µM dFBr,(α4C254S)3(β2)2 nAChR; [4],190 ± 08%
same,dFBr potentiation h (Hill coefficient),(α4C254S)3(β2)2 nAChR; co-applied with 10 μM ACh,0.8 ± 0.1
same,dFBr potentiation Imax,(α4C254S)3(β2)2 nAChR; normalized to 10 µM ACh alone,430 ± 31%
same,EC50,(α4C254S)3(β2)2 nAChR; [5],1.5 ± 0.5 µM
same,"R, potentiation ratio (PR)",(α4I275V)3(β2)2 nAChR,4.0 ± 0.6
same,"R, potentiation ratio (PR)",(α4S258M)3(β2)2 nAChR,5.0 ± 0.5
same,"R, potentiation ratio (PR)",(α4T313C)3(β2)2 nAChR,3.9 ± 0.4
same,"R, potentiation ratio (PR)",(α4H332Y)3(β2)2 nAChR,5.5 ± 0.4
same,"R, potentiation ratio (PR)",(α4L310F)3(β2)2 nAChR,5.6 ± 0.3
same,"R, potentiation ratio (PR)",(α4L260M)3(β2)2 nAChR,3.6 ± 0.4
same,ACh Imax in the presence of 1 µM dFBr,(α4L260M)3(β2)2 nAChR; [4],250 ± 36%
same,"R, potentiation ratio (PR)",(α4)3(β2)2 nAChR; WT,4.4 ± 0.2
same,dFBr potentiation h (Hill coefficient),"(α4)3(β2)2 nAChR; co-applied with 10 μM ACh, WT",1.1 ± 0.2
same,dFBr potentiation Imax,"(α4)3(β2)2 nAChR; normalized to 10 µM ACh alone, WT",580 ± 42%
same,EC50,(α4)3(β2)2 nAChR; [5],1 ± 0.3 µM
